Experimental data: the NIST ThermoML archive (doi:10.1021/je800043a)
Numbers after ± are expanded uncertainties.

Test: activity coefficient (dimensionless); of the first substance listed, at infinite dilution; xn = mol fraction of the nth substance listed
Details: Liquid, Chromatography, x1 = 0

Structure (SMILES) | activity coefficient (303.15 K) | activity coefficient (313.15 K) | activity coefficient (323.15 K) | activity coefficient (333.15 K) | activity coefficient (343.15 K) | activity coefficient (353.15 K) | activity coefficient (363.15 K)
CCCCCCC [heptane] + CCCCCCn1cc[n+](C)c1.O=S(=O)([O-])C(F)(F)F | 26.9 ± 2.8 | 26.7 ± 2.8 | 26.6 ± 2.8 | 26.5 ± 2.8 | 26.4 ± 2.8 | 26.3 ± 2.8 | 26.1 ± 2.7
C=Cc1ccccc1 [styrene] + CCCCCCn1cc[n+](C)c1.O=S(=O)([O-])C(F)(F)F | 1.7 ± 0.2 | 1.73 ± 0.18 | 1.76 ± 0.18 | 1.81 ± 0.19 | 1.84 ± 0.19 | 1.85 ± 0.19 | 1.88 ± 0.2
Cc1cccc(C)c1 [1,3-dimethylbenzene] + CCCCCCn1cc[n+](C)c1.O=S(=O)([O-])C(F)(F)F | 2.82 ± 0.3 | 2.88 ± 0.3 | 2.97 ± 0.31 | 3.03 ± 0.32 | 3.12 ± 0.33 | 3.19 ± 0.34 | 3.25 ± 0.34
CCc1ccccc1 [ethylbenzene] + CCCCCCn1cc[n+](C)c1.O=S(=O)([O-])C(F)(F)F | 2.88 ± 0.3 | 2.94 ± 0.31 | 2.99 ± 0.31 | 3.04 ± 0.32 | 3.12 ± 0.33 | 3.21 ± 0.34 | 3.27 ± 0.34
CCCCCC [hexane] + CCCCCCn1cc[n+](C)c1.O=S(=O)([O-])C(F)(F)F | 21.3 ± 2.2 | 21.2 ± 2.2 | 21.1 ± 2.2 | 20.9 ± 2.2 | 20.8 ± 2.2 | 20.7 ± 2.2 | 20.5 ± 2.2
c1ccccc1 [benzene] + CCCCCCn1cc[n+](C)c1.O=S(=O)([O-])C(F)(F)F | 1.43 ± 0.15 | 1.48 ± 0.15 | 1.5 ± 0.16 | 1.55 ± 0.16 | 1.6 ± 0.2 | 1.64 ± 0.17 | 1.65 ± 0.17
CCCCCCCCC [nonane] + CCCCCCn1cc[n+](C)c1.O=S(=O)([O-])C(F)(F)F | 45.4 ± 4.8 | 44.6 ± 4.7 | 43.7 ± 4.6 | 42.3 ± 4.5 | 41.8 ± 4.4 | 40.3 ± 4.2 | 39.9 ± 4.2
Cc1ccc(C)cc1 [1,4-dimethylbenzene] + CCCCCCn1cc[n+](C)c1.O=S(=O)([O-])C(F)(F)F | 2.76 ± 0.29 | 2.84 ± 0.3 | 2.91 ± 0.3 | 2.97 ± 0.31 | 3.08 ± 0.32 | 3.16 ± 0.33 | 3.22 ± 0.34
Cc1ccccc1 [toluene] + CCCCCCn1cc[n+](C)c1.O=S(=O)([O-])C(F)(F)F | 1.98 ± 0.21 | 2.03 ± 0.21 | 2.06 ± 0.22 | 2.14 ± 0.23 | 2.2 ± 0.23 | 2.25 ± 0.24 | 2.27 ± 0.24
Cc1ccccc1C [1,2-dimethylbenzene] + CCCCCCn1cc[n+](C)c1.O=S(=O)([O-])C(F)(F)F | 2.39 ± 0.25 | 2.47 ± 0.26 | 2.56 ± 0.27 | 2.64 ± 0.28 | 2.67 ± 0.28 | 2.72 ± 0.28 | 2.8 ± 0.29
CCCCCCCC [octane] + CCCCCCn1cc[n+](C)c1.O=S(=O)([O-])C(F)(F)F | 35 ± 3.7 | 34.5 ± 3.6 | 33.9 ± 3.6 | 33.4 ± 3.5 | 33.1 ± 3.5 | 32.7 ± 3.4 | 32 ± 3.4
C1CCCCC1 [cyclohexane] + CCCCCCn1cc[n+](C)c1.O=S(=O)([O-])C(F)(F)F | 11 ± 1.1 | 10.9 ± 1.1 | 10.8 ± 1.1 | 10.7 ± 1.1 | 10.6 ± 1.1 | 10.5 ± 1.1 | 10.5 ± 1.1
CC1CCCCC1 [methylcyclohexane] + CCCCCCn1cc[n+](C)c1.O=S(=O)([O-])C(F)(F)F | 14.1 ± 1.5 | 14 ± 2 | 13.9 ± 1.5 | 13.8 ± 1.4 | 13.7 ± 1.4 | 13.6 ± 1.4 | 13.5 ± 1.4
CC(C)CC(C)(C)C [2,2,4-trimethylpentane] + CCCCCCn1cc[n+](C)c1.O=S(=O)([O-])C(F)(F)F | 27.5 ± 2.9 | 26.9 ± 2.8 | 26.7 ± 2.8 | 26.3 ± 2.8 | 25.9 ± 2.7 | 25.7 ± 2.7 | 25.4 ± 2.7
C1=CCCCC1 [cyclohexene] + CCCCCCn1cc[n+](C)c1.O=S(=O)([O-])C(F)(F)F | 6.12 ± 0.64 | 6.2 ± 0.65 | 6.26 ± 0.66 | 6.37 ± 0.67 | 6.43 ± 0.68 | 6.5 ± 0.68 | 6.55 ± 0.69
CCCCC [pentane] + CCCCCCn1cc[n+](C)c1.O=S(=O)([O-])C(F)(F)F | 14.8 ± 1.6 | 14.6 ± 1.5 | 14.5 ± 1.5 | 14.3 ± 1.5 | 14.1 ± 1.5 | 14 ± 1.5 | 13.9 ± 1.5
CCCCCCCCCC [decane] + CCCCCCn1cc[n+](C)c1.O=S(=O)([O-])C(F)(F)F | 457 ± 48 | 357 ± 38 | 279 ± 29 | 227 ± 24 | 184 ± 19 | 148 ± 16 | 112 ± 12
